Results on 56 compounds are retold here after US20160022636A1, “PHYSIOLOGICAL LIGANDS FOR GPR139” (JANSSEN PHARMACEUTICA NV, priority 2013, published 2016).

“And” between values parts separate entries of the source, which are not always exact repeats. Equal values may be shown once.

The first test deals with GO2Q alone. In words: GTPγS binding assay, control membranes from COS7 cells expressing GO2Q alone (Ct-GO2Q). It counts as biochemical. The note with it: 1 mM final concentration; single wells of triplicate; COS7 membranes with GO2Q alone (control panel). The source says:
Human (A and B) or mouse (C and D) GPR139 were co-transfected with chimeric G-protein GO2Q into COS7 cells. Cell membranes from transfected cells were used in GTPγS binding studies using various ligands at different concentrations to stimulate GPR139. Membranes from COS7 cells transfected by GO2Q were used as the controls (E and F).
(§1) In order identify the ligands for GPR139 two improvements in the detection assay were made to allow for the ligands to be detected. First, we chose to use a GTPγS binding assay instead of using live cultured cells. The GTPγS binding assay is a cell free system that uses the cell membrane of the cell(s) of interest rather than the live cell(s). One advantage of this assay is that potential ligands present in the cell culture media are washed away when the cell membrane is prepared. This reduces the basal level of signal and increase the chance of detecting receptor ligands when assessing compounds that activate the receptor. Second, a GO2Q chimeric G-protein was created to be co-expressed with GPR139 in order to increase the signal-to-noise ratio in the GTPγS binding assay. Historically, the Gi, Go coupled GPCRs offer much greater signal-to-noise ratio in GTPγS binding studies. For Gs and Gq coupled GPCRs, although ligand-stimulated specific signals can be detected in a GTPγS binding assay, the signal-to-noise ratios are often very small. To address this a chimeric GO2-Gq chimeric G-protein, GO2Q, with the N-terminus from Go2 protein and the C-terminus from Gq protein.
(§2) To test for compounds that activate GPR139, different amino acids and their derivatives (Table 2) were tested as ligands in the GTPγS binding assay using cell membranes from COS7 cells co-expressing GPR139 and GO2Q. Cell membrane from COS7 cells expressing GO2Q alone or co-expressing other GPCRs were also tested in GTPγS binding assay in parallel as controls. Each compound was tested in triplicate.
Background: GTPγS resists hydrolysis and so accumulates on activated G proteins.
As for `N[C@@H](CCC(=O)O)C(=O)O` [Glu], the “Activation levels (GTPγS binding signal), Ct-GO2Q” value (“Activation levels … Ct-GO2Q” for short) is 2242 and 2310 and 2311.

As for `N[C@@H](Cc1ccc(O)cc1)C(=O)O` [Tyr], the “Activation levels … Ct-GO2Q” value is 2192 and 2191 and 2186.

Regarding `CC(C)[C@H](N)C(=O)O` [Val], the “Activation levels … Ct-GO2Q” value was 2072 and 2083 and 1977.

`C[C@H](N)C(=O)O` [Ala]: the “Activation levels … Ct-GO2Q” value is 1903 and 2049 and 2139.

The next test addresses T1, GPR139 (Homo sapiens, UniProt Q6DWJ6).
T1 sequence (Q6DWJ6 1-353): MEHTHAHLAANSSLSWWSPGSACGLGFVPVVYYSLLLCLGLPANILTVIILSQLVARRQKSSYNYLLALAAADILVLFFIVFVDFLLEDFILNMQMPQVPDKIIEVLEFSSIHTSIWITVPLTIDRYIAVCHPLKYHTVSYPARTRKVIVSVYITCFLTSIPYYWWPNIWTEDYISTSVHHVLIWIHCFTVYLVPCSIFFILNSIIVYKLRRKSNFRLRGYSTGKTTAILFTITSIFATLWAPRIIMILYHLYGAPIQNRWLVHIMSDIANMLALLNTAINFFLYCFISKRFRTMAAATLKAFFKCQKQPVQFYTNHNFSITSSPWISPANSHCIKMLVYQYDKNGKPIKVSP
In words: GTPγS binding assay, membranes from COS7 cells co-expressing GPR139 and GO2Q, single concentration screen. It counts as biochemical. Details: expressed in transfected cells; host or cells: COS7. The settings on record: 1 mM final concentration; single wells of triplicate; COS7 membranes co-expressing GPR139 and GO2Q. On the procedure: as §1, §2
For the compound `N[C@@H](CCC(=O)O)C(=O)O` [Glu], the “Activation levels of GPR139 (GTPγS binding signal), GPR139-GO2Q” value (“Activation levels of GPR139” for short) was 2847 and 2837 and 2841.

With `N[C@@H](Cc1ccc(O)cc1)C(=O)O` [Tyr], the “Activation levels of GPR139” value was 2752 and 2715 and 2921.

As to `CC(C)[C@H](N)C(=O)O` [Val], the “Activation levels of GPR139” value is 2632 and 2689 and 2533.

Consider `C[C@H](N)C(=O)O` [Ala], for which the “Activation levels of GPR139” value was 2363 and 2348 and 2439.

The target in another test is T1, GPR139. The experiment in a line: calcium mobilization assay (FLIPR), GPR139 transiently expressed in HEK293 cells. The settings on record: HEK293, read-out: % L-phenylalanine at 300 μM (average). The arrangement: expressed in transfected cells; host or cells: HEK293. The format is cell-based. From the text:
For these experiments human GPR139 was transiently expressed in HEK293 cells and calcium mobilization was stimulated using L-Trp, L-Phe or their derivatives.
(Calcium flux is commonly read through the fluorescence of an indicator in the cells.)
As for `N[C@H](Cc1ccc(Br)cc1)C(=O)O` [4-Bromo-D-phenylalanine], the activation at 300 µM came to 139%.

Turning to `N[C@@H](Cc1ccc(Br)cc1)C(=O)O` [4-Bromo-L-phenylalanine], the activation at 300 µM was found to be 153%.

For `N[C@@H](Cc1ccc([N+](=O)[O-])cc1[N+](=O)[O-])C(=O)O` [2,4-Dinitro-L-phenylalanine], the activation at 300 µM was 95%.

Staying with this test, now noted: HEK293; calcium mobilization at 300 μM as percentage of that observed for L-phenylalanine; read-out: % L-phenylalanine at 300 μM (average).
Regarding `N[C@@H](Cc1ccc(Cl)c(Cl)c1)C(=O)O` [3,4-Dichloro-L-phenylalanine], the activation at 300 µM was determined as 149%.

In the case of `N[C@H](Cc1cccc(F)c1)C(=O)O` [3-Fluoro-D-phenylalanine], the activation at 300 µM stood at 94%.

Turning to `N[C@H](Cc1cccc(Cl)c1)C(=O)O` [3-Chloro-D-phenylalanine], the activation at 300 µM is 147%.

`N[C@H](Cc1ccc(Cl)c(Cl)c1)C(=O)O` [3,4-Dichloro-D-phenylalanine]: the activation at 300 µM was found to be 149%.

As for `N[C@H](Cc1c(F)c(F)c(F)c(F)c1F)C(=O)O` [2,3,4,5,6-Pentafluoro-D-phenylalanine], the activation at 300 µM was 145%.

With `Cc1ccc(C[C@@H](N)C(=O)O)c(C)c1` [2,4-Dimethyl-D-phenylalanine], the activation at 300 µM came out at 101%.

For `N[C@H](Cc1cccc(Br)c1)C(=O)O` [3-Bromo-D-phenylalanine], the activation at 300 µM came out at 172%.

Turning to `N[C@H](Cc1ccc([N+](=O)[O-])cc1)C(=O)O` [4-Nitro-D-phenylalanine], the activation at 300 µM was found to be 111%.

Regarding `N#Cc1cccc(C[C@H](N)C(=O)O)c1` [3-Cyano-L-phenylalanine], the activation at 300 µM turned out to be 115%.

Regarding `N[C@H](Cc1ccc(F)c(F)c1)C(=O)O` [3,4-Difluoro-D-phenylalanine], the activation at 300 µM is 121%.

On to `Cc1ccc(C[C@H](N)C(=O)O)c(C)c1` [2,4-Dimethyl-L-phenylalanine], for which the activation at 300 µM was determined as 113%.

For the compound `N[C@@H](Cc1cccc(Cl)c1)C(=O)O` [3-Chloro-L-phenylalanine], the activation at 300 µM is 145%.

With `N[C@H](C(=O)O)C(c1ccccc1)c1ccccc1` [3,3-Diphenyl-L-alanine], the activation at 300 µM worked out at 117%.

For `Cc1ccccc1C[C@H](N)C(=O)O` [2-Methyl-L-phenylalanine], the activation at 300 µM was found to be 134%.

Turning to `N[C@@H](Cc1cccc([N+](=O)[O-])c1)C(=O)O` [3-Nitro-L-phenylalanine], the activation at 300 µM was found to be 131%.

Consider `N[C@@H](Cc1ccc(I)cc1)C(=O)O` [4-Iodo-L-phenylalanine], for which the activation at 300 µM was 116%.

`N[C@@H](Cc1ccc(F)cc1)C(=O)O` [4-Fluoro-L-phenylalanine]: the activation at 300 µM stood at 132%.

With `N[C@H](CCCc1ccccc1)C(=O)O` [D-2-Amino-5-phenyl-pentanoic acid], the activation at 300 µM worked out at 129%.

As for `N[C@@H](Cc1ccccc1C(F)(F)F)C(=O)O` [2-Trifluoromethyl-L-phenylalanine], the activation at 300 µM is 110%.

Take `N[C@@H](Cc1cccc(C(F)(F)F)c1)C(=O)O` [3-Trifluoromethyl-L-phenylalanine]: the activation at 300 µM was 133%.

Turning to `Cc1cccc(C[C@H](N)C(=O)O)c1` [3-Methyl-L-phenylalanine], the activation at 300 µM turned out to be 147%.

Turning to `C[C@](N)(Cc1ccc(F)cc1)C(=O)O` [α-methyl-4-Fluoro-L-phenylalanine], the activation at 300 µM turned out to be 125%.

As for `N#Cc1cccc(C[C@@H](N)C(=O)O)c1` [3-Cyano-D-phenylalanine], the activation at 300 µM came out at 93%.

For `Cc1ccccc1C[C@@H](N)C(=O)O` [2-Methyl-D-phenylalanine], the activation at 300 µM is 109%.

Consider `COc1ccc(C[C@H](N)C(=O)O)cc1` [4-Methoxy-L-phenylalanine], for which the activation at 300 µM came to 128%.

Turning to `N[C@H](Cc1ccc(Cl)cc1)C(=O)O` [4-Chloro-D-phenylalanine], the activation at 300 µM was determined as 110%.

With `Cc1cccc(C[C@@H](N)C(=O)O)c1` [3-Methyl-D-phenylalanine], the activation at 300 µM came to 150%.

`N[C@H](Cc1ccc(I)cc1)C(=O)O` [4-Iodo-D-phenylalanine]: the activation at 300 µM is 125%.

On to `N[C@@H](Cc1ccc(C(F)(F)F)cc1)C(=O)O` [4-Trifluoromethyl-L-phenylalanine], for which the activation at 300 µM was 150%.

Regarding `Cc1ccc(C[C@H](N)C(=O)O)cc1` [4-Methyl-L-phenylalanine], the activation at 300 µM amounted to 149%.

In the case of `N[C@H](Cc1cc(F)cc(F)c1)C(=O)O` [3,5-Difluoro-D-phenylalanine], the activation at 300 µM came out at 102%.

Regarding `N[C@@H](Cc1ccccc1[N+](=O)[O-])C(=O)O` [2-Nitro-L-phenylalanine], the activation at 300 µM is 150%.

As to `N[C@H](Cc1ccccc1Br)C(=O)O` [2-Bromo-D-phenylalanine], the activation at 300 µM was 135%.

On to `Cc1ccc(C[C@@H](N)C(=O)O)cc1` [4-Methyl-D-phenylalanine], for which the activation at 300 µM worked out at 102%.

For the compound `N[C@H](Cc1ccc(F)cc1)C(=O)O` [4-Fluoro-D-phenylalanine], the activation at 300 µM was 91%.

Turning to `N[C@H](Cc1cccc([N+](=O)[O-])c1)C(=O)O` [3-Nitro-D-Phenylalanine], the activation at 300 µM turned out to be 164%.

Take `CC(C)(C)c1ccc(C[C@H](N)C(=O)O)cc1` [4-tert-Butyl-L-phenylalanine]: the activation at 300 µM stood at 115%.

Consider `N[C@@H](Cc1cccc(F)c1)C(=O)O` [3-Fluoro-L-phenylalanine], for which the activation at 300 µM was 114%.

`N[C@@H](Cc1cccc(Br)c1)C(=O)O` [3-Bromo-L-phenylalanine]: the activation at 300 µM was 167%.

Turning to `N[C@H](Cc1ccc(Cl)cc1Cl)C(=O)O` [2,4-Dichloro-D-phenylalanine], the activation at 300 µM was 135%.

On to `N[C@@H](Cc1ccccc1F)C(=O)O` [2-Fluoro-L-phenylalanine], for which the activation at 300 µM turned out to be 119%.

`N[C@@H](Cc1ccc(Cl)cc1Cl)C(=O)O` [2,4-Dichloro-L-phenylalanine]: the activation at 300 µM is 122%.

For `N[C@@H](Cc1ccccc1Br)C(=O)O` [2-Bromo-L-phenylalanine], the activation at 300 µM was 168%.

In the case of `N[C@@H](Cc1ccc(Cl)cc1)C(=O)O` [4-Chloro-L-phenylalanine], the activation at 300 µM came out at 146%.

Turning to `CC(C)(C)OC(=O)N1Cc2ccccc2C[C@@H]1C(=O)O` [(3R)-2-tert-butoxycarbonyl-3,4-dihydro-1H-isoquinoline-3-carboxylic acid], the activation at 300 µM came to 155%.

The test is the same for the next values; noted with them: calcium mobilization at 300 μM as percentage of that observed for L-phenylalanine.
Turning to `O=C(O)[C@@H]1Cc2c([nH]c3ccccc23)CN1` [L-1,2,3,4-tetrahydronorharman-3-carboxylic acid], the “% L-phenylalanine at 300 μM (average)” value is recorded as 151%.

Turning to `N[C@H](Cc1ccc(Br)s1)C(=O)O` [2-(5-bromothienyl)-D-alanine], the “% L-phenylalanine at 300 μM (average)” value stood at 154%.

On to `N[C@H](CCc1ccccc1)C(=O)O` [d-Homo-phenylalanine], for which the “% L-phenylalanine at 300 μM (average)” value worked out at 105%.

Take `N[C@@H](Cc1ccc(Br)s1)C(=O)O` [2-(5-bromothienyl)-L-alanine]: the “% L-phenylalanine at 300 μM (average)” value came out at 151%.
